The subject of one series is human α-synuclein. The series can be described thus: Masliah D-line α-synuclein transgenic mouse, α-synuclein immunoreactivity and ELISA. It is filed as in vivo. As to the method: Animals and treatments: Male and female human WT alpha-synuclein over-expressing transgenic mice^32 at 6 months of age were given vehicle (10% beta-cyclodextrin) or LNK-754-TS (0.09, 0.9 and 9 mg/kg) per oral gavage twice daily for 3 months or animals at 7 months of age were given vehicle (2.5% beta-cyclodextrin) or LNK-754-TS (2 mg/kg) once every three days for 3 months. Male and female TAU transgenic mice expressing TAU441 bearing the missense mutations V337M^50 and R406W under the control of the murine Thy-1 promoter with a CB6xC57BL/6 background were 5 months old at the time when the oral treatment for three months with LNK-754-TS (0.9 and 0.09 mg/kg) as well as vehicle (2.5% beta-cyclodextrin) was started. Female human APP/PS1 (APP (London V7171)/PS1(A246E)) over-expressing transgenic mice were treated with LNK-754-TS (0.9 mg/kg) or vehicle (2.5% beta-cyclodextrin) for 2 months or 12 days.
Immunohistochemistry and quantification of stained cells: For evaluation of α-synuclein immunoreactivity (IR), 5 sagittal cryo-cut sections (10 μm slice thickness) from five different layers were used for counting of IR cells in the cortex and hippocampus. Brain sections were stained with a monoclonal human α-synuclein specific antibody (Alexis®; Cat#804-258-L001; dilution 1:5), followed by a secondary Ab Cy 2-Goat Anti-Rat (Jackson ImmunoResearch®; dilution 1:200). IR positive cells were quantified using specialized image analysis software (Image Pro Plus, version 4.5.1.29). For Tau transgenic animals, 5 μm thick coronal paraffin sections were stained with the monoclonal mouse anti-human TAU-antibodies (AT180—1:100; HT7—1:500) and visualized using an anti-mouse Cy3 secondary antibody (1:500, Jackson Laboratories®). Images were evaluated with ImageProPlus (version 6.2) image analysis software. For APP/PS1 transgenic animals sagittal hemisections (40 μm) were collected and processed for Aβ immunohistochemistry using an 6E10 antibody, Thioflavin-S staining. Primary antibodies were detected by the ABC method.
ELISA quantification of α-Synuclein in the α-Synuclein transgenic animals: Brain homogenate was centrifuged and the supernatant saved as fraction F1. The pellet was washed then resuspended and saved as fraction F2. Plates (Nunc, 464718) were coated with SYN-1 (1:1000, BD Transduction Labs, 610787). Monomeric recombinant α-synuclein was included as an internal standard. Biotinylated antibody FL-140 (1:300, Santa Cruz Biotechnology, sc-10717-B) and ExtrAvidin-Alkaline phosphatase (3:5000, Sigma, E2636) was added followed by pNPP substrate solution (Sigma, N1891). Raw absorbance (405 nm) was then normalized to the total protein concentration of each sample. In the APP/PS1 transgenic animal, brains were homogenized and the supernatant, Faction 1, was separated from the pellet. The pellets were further processed with addition of NP40 and Triton X-100. The supernatant was separated from the pellet as the insoluble membrane, Fraction 2, and was dissolved in 8M Guanidine. To quantify the amount of human Aβ-40 and Aβ-42, ELISA kits were used (The Genetics Company, Zurich, Switzerland).
In FIG. 2 is shown efficacy data for LNK-754-TS in the Masliah D-line transgenic α-synuclein mouse (an accepted model of synucleinopathies). Two trials are shown, the first (FIG. 2A) at higher doses of LNK-754-TS: 45 mg/kg and 9 mg/kg. […] The second trial (FIG. 2B) explores the low dose range for efficacy in the α-synuclein models. Here, doses start as low as 0.9 mg/kg, and extend through 9 mg/kg, all below the efficacious dose range in the mouse oncology model.
After dosing with LNK-754-TS for three months (twice daily at 0.09 mg/kg or 0.9 mg/kg), α-synuclein accumulation in the brain was analyzed by immunohistochemical (human specific α-synuclein immunoreactivity) and biochemical (α-synuclein ELISA) means. […]
(An ELISA detects its analyte on a solid surface through an enzyme-linked reagent.)

The test system of series [1] is p70 S6 kinase (S6K) phosphorylation, mTOR pathway. The series can be described thus: p70 S6 kinase phosphorylation in SH-SY5Y cells. To be noted: SH-SY5Y (FIG. 8f). It is filed as cell-based, human. From the text: Rapamycin is a well-characterized autophagy stimulator that acts through inhibition of mTOR, a kinase involved in nutrient signaling and regulation of cell growth and survival.

The subject of another series is Ras. The experiment in a line: Inhibition of Ras farnesylation in SH-SY5Y cells. It is filed as cell-based, human. To be noted: continuous exposure over long periods, average.
Another series deals with HDJ2. The series can be described thus: Inhibition of HDJ2 farnesylation in SH-SY5Y cells. The class given is cell-based, human. The conditions noted are these: continuous exposure over long periods.
Another series has as its system Aβ. The experiment in a line: h-APPs1 transgenic mouse, Aβ levels. To be noted: 0.9 mg/kg once every 24 hr, three months. The class given is in vivo. From the text:
Finally, it is important to note that LNK-754-TS had no effect on APP processing and secretion in a cell culture model of pathogenic Aβ production (Selkoe, D. J., et al. Ann N Y Acad Sci 777, 57-64 (1996)).

The target of another series is FTase (Homo sapiens, UniProt P49354+P49356). The series can be described thus: Table 5A in vitro FTI (H-Ras, K-Ras protein) and Ki FTase. The class given is biochemical. From the text: The selectivity of LNK-754 for FTase over GGTAse is shown below in Table 5A.
Setting [2] is: 9 mg/kg PO BID 3 months, first trial (FIG. 2A).
[3] abbreviates: 45 mg/kg PO BID 3 months (FIG. 2A).
[4] abbreviates: 0.09 or 0.9 mg/kg twice daily, three months.
The mark [5] stands for this setting: α-synuclein transgenic mice vs vehicle.

Entries after “also recorded” stand apart in the source; their conditions may differ. Read-outs that look alike come from different tables or passages of the source. A value given as a limit tells only on which side of the number the result lay.

The term Ki denotes the equilibrium dissociation constant of an inhibitor or competing ligand from its target. A lower Ki goes with higher affinity.

`C#Cc1cccc(-c2cc(=O)n(C)c3ccc([C@](O)(c4ccc(Cl)cc4)c4cncn4C)cc23)c1` [LNK-754-TS, (R)-6-[(4-chlorophenyl)-hydroxyl-(1-methyl-1-H-imidazol-5-yl)-methyl]-4-(3-ethynylphenyl)-1-methyl-2-(1H)-quinonlinone (2S, 3S)-dihydroxybutanedioate]: in the series with human α-synuclein (0.09 mg/kg or 0.9 mg/kg twice daily, three months, cortex and hippocampus), the “α-synuclein accumulation in brain (immunoreactivity and ELISA)” value is on record as “clearly reduced; also recorded: halts deposition”. Further, in the series on human α-synuclein (2 mg/kg once every 72 hours, three months, vs baseline and vehicle), the “cortical α-synuclein immunoreactivity” value is “significantly lower than at the outset of treatment; also recorded: significantly reduces”. In the series with human α-synuclein (setting [2]), the “number of α-synuclein positive neurons” value is given as “significant reduction”. Moreover, the “number of α-synuclein IR cells in hippocampus” value in the series with human α-synuclein (9 mg/kg PO BID 3 months, second lower dose trial (FIG. 2B)) was “significance level was not reached”. For the same compound, in the series with human α-synuclein (setting [3]), the “number of α-synuclein positive neurons” value was “not significantly effective”. In addition, in the series with human α-synuclein (setting [4]), the “astrocytosis (GFAP staining)” value was “GFAP staining was unchanged”; the drug-dependent toxicity entry was “None of the treated animals showed any evidence”; the “neuronal loss (NeuN staining and brain volume)” value is “no evidence of neuronal loss”; the “synaptic damage (synaptophysin staining)” value is “synaptophysin staining was unchanged”. Moreover, in the series with human α-synuclein (three-month dosing trial (FIG. 9c)), the “reduction of α-synuclein immunoreactivity, hippocampal slices” value is “ca. 50%”. Besides, the “phosphorylation of p70 S6 kinase (S6K)” value in series [1] is on record as “did not inhibit phosphorylation”. Further, the IC50 in the series with Ras was 1 nM. Moreover, the IC50 with HDJ2 was 10 nM. Moreover, in the series on Aβ, the “amounts of more soluble Aβ42 species” value was “small reduction”; the “cortical Aβ immunoreactivity and Aβ in insoluble fractions” value is given as “did not significantly reduce”.

For `C#Cc1cccc(-c2cc(=O)n(C)c3ccc([C@](O)(c4ccc(Cl)cc4)c4cncn4C)cc23)c1` [LNK-754, (R)-6-[(4-chlorophenyl)-hydroxyl-(1-methyl-1-H-imidazol-5-yl)-methyl]-4-(3-ethynylphenyl)-1-methyl-2-(1H)-quinonlinone], the “number of α-synuclein positive neurons” value in the series with human α-synuclein (0.9 mg/kg, second trial (FIG. 2B)) is “significantly lowered”; in the series on human α-synuclein (setting [2]), “found to significantly lower”; in the series with human α-synuclein (setting [3]), “did not significantly lower; also recorded: not found to significantly lower”. For the same compound, in the series on human α-synuclein (setting [5]), the “levels of α-synuclein in the hippocampus” value is listed as “decrease levels of α-synuclein”. For the same compound, in the series with human α-synuclein (setting [5]), the α-synuclein inclusions entry is reported as “fewer α-synuclein inclusions”. Also, the Ki at FTase was less than 0.05 nM. Moreover, the “GGTI/FTI (H-Ras)” value at FTase (ratio) was determined as 580. Besides, the “GGTI/FTI (K-Ras)” value at FTase (ratio) came to 40.11. Also, the IC50 was determined as 0.9 nM at FTase (read-out: H-Ras protein CLVS in vitro FTI) and 72 nM on FTase (read-out: K-Ras protein CVIM in vitro FTI).

The values above are taken from patent publication US20100331363A1, “TREATMENT OF MITOCHONDRIAL DISORDERS USING A FARNESYL TRANSFERASE INHIBITOR” (Link Medicine Corporation, priority 2008, published 2010).
